Test results taken from PubChem BioAssay (NCI).
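Five compound concentrations were applied to cells in 96-well plates for 48 hours; endpoints were derived by simple linear interpolation of the resulting dose-response curve. Definition used: TGI = concentration required for complete inhibition of growth.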

Columns and labels:
Experiment in all cases: inhibition of tumour cell growth, NCI panel, 48 h
ACHN renal = system: ACHN renal
SF-268 CNS = system: SF-268 CNS
NCI/ADR-RES ovarian = system: NCI/ADR-RES ovarian
A498 renal = system: A498 renal
SR leukemia = system: SR leukemia
SK-MEL-28 melanoma = system: SK-MEL-28 melanoma
786-0 renal = system: 786-0 renal
OVCAR-4 ovarian = system: OVCAR-4 ovarian
NCI-H226 lung = system: NCI-H226 lung
UACC-257 melanoma = system: UACC-257 melanoma
HT29 colon = system: HT29 colon
SF-295 CNS = system: SF-295 CNS
MCF7 breast = system: MCF7 breast
NCI-H460 lung = system: NCI-H460 lung
DU-145 prostate = system: DU-145 prostate
RPMI-8226 leukemia = system: RPMI-8226 leukemia
SNB-19 CNS = system: SNB-19 CNS
SK-OV-3 ovarian = system: SK-OV-3 ovarian
HOP-92 NSCLC = system: HOP-92 NSCLC
A549 NSCLC = system: A549 NSCLC
RXF 393 renal = system: RXF 393 renal
SK-MEL-5 melanoma = system: SK-MEL-5 melanoma
UO-31 renal = system: UO-31 renal
T-47D breast = system: T-47D breast
SF-539 CNS = system: SF-539 CNS
HCT-116 colon = system: HCT-116 colon
SNB-75 CNS = system: SNB-75 CNS
OVCAR-3 ovarian = system: OVCAR-3 ovarian
UACC-62 melanoma = system: UACC-62 melanoma
IGROV1 ovarian = system: IGROV1 ovarian
HOP-62 NSCLC = system: HOP-62 NSCLC
MOLT-4 leukemia = system: MOLT-4 leukemia
COLO 205 colon = system: COLO 205 colon
MDA-N = system: MDA-N
HL-60(TB) leukemia = system: HL-60(TB) leukemia
NCI-H522 lung = system: NCI-H522 lung
U251 CNS = system: U251 CNS
OVCAR-8 ovarian = system: OVCAR-8 ovarian
HCT-15 colon = system: HCT-15 colon
TK-10 renal = system: TK-10 renal
BT-549 breast = system: BT-549 breast
PC-3 prostate = system: PC-3 prostate
LOX IMVI melanoma = system: LOX IMVI melanoma
HCC-2998 colon = system: HCC-2998 colon
CCRF-CEM leukemia = system: CCRF-CEM leukemia
MDA-MB-231 breast = system: MDA-MB-231 breast
MALME-3M melanoma = system: MALME-3M melanoma
SW-620 colon = system: SW-620 colon
HS 578T breast = system: HS 578T breast
OVCAR-5 ovarian = system: OVCAR-5 ovarian
KM12 colon = system: KM12 colon
MDA-MB-435 = system: MDA-MB-435
M14 melanoma = system: M14 melanoma
K-562 leukemia = system: K-562 leukemia
EKVX NSCLC = system: EKVX NSCLC
CAKI-1 renal = system: CAKI-1 renal
NCI-H23 lung = system: NCI-H23 lung
SN12C renal = system: SN12C renal
SK-MEL-2 melanoma = system: SK-MEL-2 melanoma

## CCOC(=O)/C=C(/C(=O)OCC)n1cc(C)c(=O)n(/C(=C/C(=O)OCC)C(=O)OCC)c1=O
ACHN renal
  TGI: 4.08 µM
SF-268 CNS
  TGI: 32.8 µM
NCI/ADR-RES ovarian
  TGI: 26.1 µM
A498 renal
  TGI: 36.8 µM
SR leukemia
  TGI: 5.72 µM
SK-MEL-28 melanoma
  TGI: 5.04 µM
786-0 renal
  TGI: 2.56 µM
OVCAR-4 ovarian
  TGI: > 22.3 µM
NCI-H226 lung
  TGI: 12.6 µM
UACC-257 melanoma
  TGI: 10.9 µM
HT29 colon
  TGI: 7.72 µM
SF-295 CNS
  TGI: 33.5 µM
MCF7 breast
  TGI: 5.5 µM
NCI-H460 lung
  TGI: 37.1 µM
DU-145 prostate
  TGI: 26.6 µM
RPMI-8226 leukemia
  TGI: 4.52 µM
SNB-19 CNS
  TGI: 36.3 µM
SK-OV-3 ovarian
  TGI: 31.5 µM
HOP-92 NSCLC
  TGI: 2.91 µM
A549 NSCLC
  TGI: 31.8 µM
RXF 393 renal
  TGI: 3.73 µM
SK-MEL-5 melanoma
  TGI: 20.8 µM
UO-31 renal
  TGI: 10.8 µM
T-47D breast
  TGI: 7.86 µM
SF-539 CNS
  TGI: 23.5 µM
HCT-116 colon
  TGI: 4.88 µM
SNB-75 CNS
  TGI: 24 µM
OVCAR-3 ovarian
  TGI: 7.7 µM
UACC-62 melanoma
  TGI: 19.4 µM
IGROV1 ovarian
  TGI: 17 µM
HOP-62 NSCLC
  TGI: 43.3 µM
MOLT-4 leukemia
  TGI: 5.78 µM
COLO 205 colon
  TGI: 2.87 µM
MDA-N
  TGI: 13.7 µM
HL-60(TB) leukemia
  TGI: 0.674 µM
NCI-H522 lung
  TGI: 1.88 µM
U251 CNS
  TGI: 19.3 µM
OVCAR-8 ovarian
  TGI: 13 µM
HCT-15 colon
  TGI: 4.01 µM
TK-10 renal
  TGI: 4.06 µM
BT-549 breast
  TGI: 15.9 µM
PC-3 prostate
  TGI: 12.3 µM
LOX IMVI melanoma
  TGI: 7.59 µM
HCC-2998 colon
  TGI: 22.1 µM
CCRF-CEM leukemia
  TGI: 1.53 µM
MDA-MB-231 breast
  TGI: 9.01 µM
MALME-3M melanoma
  TGI: 4.36 µM
SW-620 colon
  TGI: 3.03 µM
HS 578T breast
  TGI: 45.7 µM
OVCAR-5 ovarian
  TGI: 14.3 µM
KM12 colon
  TGI: 30.1 µM
MDA-MB-435
  TGI: 7.76 µM
M14 melanoma
  TGI: 6.48 µM
K-562 leukemia
  TGI: 3.81 µM
EKVX NSCLC
  TGI: 13.9 µM
CAKI-1 renal
  TGI: 2.14 µM
NCI-H23 lung
  TGI: 12.9 µM
SN12C renal
  TGI: 8.58 µM
SK-MEL-2 melanoma
  TGI: 33 µM
